Measured values reported in US20230121313A1 (priority 2019, published 2023).

System: patients with treatment-resistant depression (TRD)
Assay: MADRS total score, phase 2 doubly-randomized dose-response study in TRD (NCT01998958)
Format: in vivo, human
Conditions: for MADRS total score, Mean difference placebo: Period 1 and Period 2 Combined; for MADRS total score: LS mean difference vs placebo, range over esketamine dose groups / Proportion of responders (≥50% improvement in MADRS total score) / Remission (MADRS total score ≤10) / MADRS total score: treatment difference relative to placebo: phase 2; for MADRS total score: LS mean difference vs placebo, range over esketamine dose groups: 28, 56, 84 mg; for Proportion of responders (≥50% improvement in MADRS total score): Period 2 endpoint; for Remission (MADRS total score ≤10): after 2 weeks; for MADRS total score: treatment difference relative to placebo: day 15
From the text: In Panel A, reported here, 14 study sites (13 in US, 1 in Belgium) enrolled participants into the study. The study consisted of four phases: 1) screening, 2) double-blind treatment (days 1 to 15), comprised of two 1-week periods (Period 1, Period 2), 3) optional open-label treatment (days 15 to 74) with tapering of intranasal dosing frequency, and 4) post-treatment follow-up (8 weeks). Based on prior studies of ketamine where efficacy was reported after 1-2 doses, the duration of each period in the double-blind phase was 1 week, during which time it was expected that efficacy could be achieved. This design allowed evaluation of the dose(s) needed to proceed to evaluation in phase 3. The purpose of the open-label flexible-dose phase was to evaluate the impact of less frequent dosing on sustaining efficacy.
At the beginning of double-blind Period 1, eligible participants were randomized (3:1:1:1) to intranasal placebo or esketamine 28, 56, or 84 mg, twice weekly (days 1 and 4) based on the first of two computer-generated randomization schedules (Period 1 and Period 2). Randomization was balanced by using randomly permuted blocks and stratified by study center. At the end of Period 1, those randomized to placebo who had moderate-to-severe symptoms (assessed by Quick Inventory of Depressive Symptomatology-Self Report (Trivedi 2016 and Rush, “The 16-item Quick Inventory of Depressive Symptomatology (QIDS) Clinician Rating (QIDS-C) and Self-Report (QIDS-SR): A psychometric evaluation in patients with chronic major depression”, Biol. Psychiatry, 2003, 54(5):573-583) [QIDS-SR16] total score: moderate, 11-16; severe, >16) were re-randomized (1:1:1:1) to intranasal esketamine 28, 56, or 84 mg or placebo, twice weekly (days 8 and 11), while those having mild or no symptoms continued on placebo. To maintain the blind, all participants completed an identical process prior to entry into Period 2, whether or not they were re-randomized. Regardless of response in the double-blind phase, all participants were eligible to enter the optional open-label phase. Esketamine (56 mg) was administered on the first day of the open-label phase (study day 15); subsequent doses could be adjusted (range: 28 to 84 mg) based on investigator's clinical judgment, with administration twice weekly for first 2 weeks, weekly for next 3 weeks, then every 2 weeks thereafter.
Efficacy was assessed with the Montgomery-Asberg Depression Rating Scale (MADRS; Montgomery, “A new depression scale designed to be sensitive to change”, Br. J. Psychiatry, 1979, 134:382-389; Williams, “Development and reliability of a structured interview guide for the Montgomery Asberg Depression Rating Scale (SIGMA)”, Br. J. Psychiatry, 2008, 192(1):52-58) on days 1 (pre-dose and 2 hour post-dose), 2, 8 (pre-dose), 9, and 15, using the structured interview guide (SIGMA). See, Williams 2008.
Efficacy data were analyzed in intent-to-treat (ITT) analysis sets for each period and phase. The ITT analysis sets included all participants who received at least 1 dose of study medication during that period or phase and had baseline and at least one post-baseline MADRS total score within that period or phase.
The primary efficacy endpoint—change from baseline (pre-dose, day 1 in each period) to endpoint (day 8 in each period) in MADRS total score—was analyzed using the analysis of covariance (ANCOVA) model. For Period 1, the model included treatment and country as factors, and baseline MADRS total score as covariate. For Period 2, the model included treatment and country as factors, Period 2 baseline QIDS-SR16 score (moderate or severe), and Period 2 baseline MADRS total score as a continuous covariate.
Given the consistency between Periods 1 and 2 results (Chi 2016), esketamine dose groups were compared to placebo using a combined test on the weighted test statistics for each period in the double-blind treatment phase. […]

[1] = OL endpoint-day 74, Esketamine/Esketamine/OL Esketamine
[2] = OL endpoint-day 74, Placebo/Esketamine/OL Esketamine
[3] = OL endpoint-day 74, Placebo/Placebo/OL Esketamine
[4] = Period 1, 2 hours, esketamine 28 mg
[5] = Period 1, 2 hours, esketamine 56 mg
[6] = Period 1, 2 hours, esketamine 84 mg
[7] = Period 1, 24 hours, esketamine 28 mg
[8] = Period 1, 24 hours, esketamine 56 mg
[9] = Period 1, 24 hours, esketamine 84 mg
[10] = Period 1, study period endpoint (day 8), esketamine 28 mg
[11] = Period 1, study period endpoint (day 8), esketamine 56 mg
[12] = Period 1, study period endpoint (day 8), esketamine 84 mg
[13] = Period 2 (placebo nonresponsive participants re-randomized), 2 hours, esketamine 28 mg
[14] = Period 2 (placebo nonresponsive participants re-randomized), 2 hours, esketamine 56 mg
[15] = Period 2 (placebo nonresponsive participants re-randomized), 2 hours, esketamine 84 mg
[16] = Period 2 (placebo nonresponsive participants re-randomized), 24 hours, esketamine 28 mg
[17] = Period 2 (placebo nonresponsive participants re-randomized), 24 hours, esketamine 56 mg
[18] = Period 2 (placebo nonresponsive participants re-randomized), 24 hours, esketamine 84 mg
[19] = Period 2 (placebo nonresponsive participants re-randomized), study period endpoint (day 15), esketamine 28 mg
[20] = Period 2 (placebo nonresponsive participants re-randomized), study period endpoint (day 15), esketamine 56 mg
[21] = Period 2 (placebo nonresponsive participants re-randomized), study period endpoint (day 15), esketamine 84 mg
[22] = Week 8 (Follow-up), Esketamine/Esketamine/OL Esketamine
[23] = Week 8 (Follow-up), Placebo/Esketamine/OL Esketamine
[24] = Week 8 (Follow-up), Placebo/Placebo/OL Esketamine

## CN[C@]1(c2ccccc2Cl)CCCCC1=O [esketamine, (S)-2-(2-chlorophenyl)-2-(methylamino)cyclohexanone]
[1]
  Remission Rate, No, %: 72.2%
  Remission Rate, Yes, %: 27.8%
  Response Rate, ≥50% improvement, %: 61.1%
[2]
  Remission Rate, No, %: 60.0%
  Remission Rate, Yes, %: 40.0%
  Response Rate, ≥50% improvement, %: 50.0%
[3]
  Remission Rate, No, %: 66.7%
  Remission Rate, Yes, %: 33.3%
  Response Rate, ≥50% improvement, %: 100%
OL endpoint-day 74, Total
  Remission Rate, No, %: 67.6%
  Remission Rate, Yes, %: 32.4%
  Response Rate, ≥50% improvement, %: 64.7%
[4]
  MADRS total score, LS mean change: −16.4
  MADRS total score, LS mean difference placebo: −6.7
  Remitters, %: (27.3) %
  Responders, %: (54.5) %
[5]
  MADRS total score, LS mean change: −14.3
  MADRS total score, LS mean difference placebo: −4.6
  Remitters, %: (18.2) %
  Responders, %: (36.4) %
[6]
  MADRS total score, LS mean change: −17.6
  MADRS total score, LS mean difference placebo: −7.9
  Remitters, %: (25.0) %
  Responders, %: (58.3) %
[7]
  MADRS total score, LS mean change: −14.8
  MADRS total score, LS mean difference placebo: −9.1
  Remitters, %: (36.4) %
  Responders, %: (36.4) %
[8]
  MADRS total score, LS mean change: −15.7
  MADRS total score, LS mean difference placebo: −10.0
  Remitters, %: (18.2) %
  Responders, %: (27.3) %
[9]
  MADRS total score, LS mean change: −16.4
  MADRS total score, LS mean difference placebo: −10.7
  Remitters, %: (25.0) %
  Responders, %: (41.7) %
[10]
  MADRS total score, LS mean change: −9.8
  MADRS total score, LS mean difference placebo: −5.0
  Remitters, %: (9.1) %
  Responders, %: (9.1) %
[11]
  MADRS total score, LS mean change: −12.4
  MADRS total score, LS mean difference placebo: −7.6
  Remitters, %: (9.1) %
  Responders, %: (18.2) %
[12]
  MADRS total score, LS mean change: −15.3
  MADRS total score, LS mean difference placebo: −10.5
  Remitters, %: (25.0) %
  Responders, %: (41.7) %
Esketamine 28 mg
  MADRS total score, Mean difference placebo: −4.2
Esketamine 56 mg
  MADRS total score, Mean difference placebo: −6.3
Esketamine 84 mg
  MADRS total score, Mean difference placebo: −9.0
[13]
  MADRS total score, LS mean change: −10.3
  MADRS total score, LS mean difference placebo: −3.5
  Remitters, %: (12.5) %
  Responders, %: (12.5) %
[14]
  MADRS total score, LS mean change: −11.7
  MADRS total score, LS mean difference placebo: −4.9
  Responders, %: (22.2) %
[15]
  MADRS total score, LS mean change: −11.6
  MADRS total score, LS mean difference placebo: −4.9
  Remitters, %: (40.0) %
  Responders, %: (40.0) %
[16]
  MADRS total score, LS mean change: −8.9
  MADRS total score, LS mean difference placebo: −4.8
[17]
  MADRS total score, LS mean change: −10.2
  MADRS total score, LS mean difference placebo: −6.1
  Responders, %: (11.1) %
[18]
  MADRS total score, LS mean change: −11.6
  MADRS total score, LS mean difference placebo: −7.5
  Remitters, %: (20.0) %
  Responders, %: (40.0) %
[19]
  MADRS total score, LS mean change: −7.6
  MADRS total score, LS mean difference placebo: −3.1
  Remitters, %: (12.5) %
  Responders, %: (12.5) %
[20]
  MADRS total score, LS mean change: −8.9
  MADRS total score, LS mean difference placebo: −4.4
[21]
  MADRS total score, LS mean change: −11.4
  MADRS total score, LS mean difference placebo: −6.9
  Remitters, %: (20.0) %
  Responders, %: (20.0) %
[22]
  Remission Rate, No, %: 54.5%
  Remission Rate, Yes, %: 45.5%
  Response Rate, ≥50% improvement, %: 68.2%
[23]
  Remission Rate, No, %: 75.0%
  Remission Rate, Yes, %: 25.0%
  Response Rate, ≥50% improvement, %: 25.0%
[24]
  Remission Rate, No, %: 42.9%
  Remission Rate, Yes, %: 57.1%
  Response Rate, ≥50% improvement, %: 71.4%
Week 8 (Follow-up), Total
  Remission Rate, No, %: 58.5%
  Remission Rate, Yes, %: 41.5%
  Response Rate, ≥50% improvement, %: 56.1%
Period 1 (baseline to day 8)
  MADRS total score: LS mean difference vs placebo, range over esketamine dose groups: −5.0 to −10.5
Period 2 (day 8 to day 15)
  MADRS total score: LS mean difference vs placebo, range over esketamine dose groups: −3.1 to −6.9
28 mg
  Proportion of responders (≥50% improvement in MADRS total score): 37.5%
  Remission (MADRS total score ≤10): 12.5%
56 mg
  Proportion of responders (≥50% improvement in MADRS total score): 36.4%
  Remission (MADRS total score ≤10): 27.3%
84 mg
  Proportion of responders (≥50% improvement in MADRS total score): 50.0%
  Remission (MADRS total score ≤10): 40.0%
Completers with same treatment 2 weeks, 84 mg
  MADRS total score: treatment difference relative to placebo: −12.5
completers, 28 mg
  MADRS total score: treatment difference relative to placebo: −6.0
completers, 56 mg
  MADRS total score: treatment difference relative to placebo: −8.3
